The test system of the experiment is C57BL/6 mice. As to the kind of experiment: animal or person. The experiment is classed as in vivo. As to conditions: Mus musculus, sc, 0.5 h, s.c. administration, 30 min, 55° C. water, read-out: ED50 (mg/kg) at 30 min on C57BL/6 mice in Warm-water Tail-flick Test.
`CCOCC1(CCc2ccccc2)CCN(Cc2ccc(C(C)=O)cc2)CC1` [Compound 146, 1-(4-((4-(ethoxymethyl)-4-phenethylpiperidin-1-yl)methyl)phenyl)ethanone]: the ED50 is more than 10 mg/kg.
Take `CCOCC1(CCc2ccsc2)CCN(Cc2ccc(NC(C)=O)cc2)CC1` [Compound 147, N-(4-((4-(ethoxymethyl)-4-(2-(thiophen-3-yl)ethyl)piperidin-1-yl)methyl)phenyl)acetamide]: the ED50 is less than 10 mg/kg.
With `CCOCC1(CCc2ccc3ccccc3c2)CCN(Cc2ccc(NC(C)=O)cc2)CC1` [Compound 148, N-(4-((4-(ethoxymethyl)-4-(2-(naphthalen-2-yl)ethyl)piperidin-1-yl)methyl)phenyl)acetamide], the ED50 is more than 10 mg/kg.
For the compound `CCOCC1(CCc2ccccn2)CCN(Cc2ccc(NC(C)=O)cc2)CC1` [Compound 149, N-(4-((4-(ethoxymethyl)-4-(2-(pyridin-2-yl)ethyl)piperidin-1-yl)methyl)phenyl)acetamide], the ED50 is more than 10 mg/kg.
As to `CCOCC1(CCc2ccccc2)CCN(Cc2ccc(Br)cc2)CC1` [Compound 150, 1-(4-bromobenzyl)-4-(ethoxymethyl)-4-phenethylpiperidine], the ED50 is more than 10 mg/kg.
`CCOCC1(CCc2ccccc2)CCN(Cc2ccc(C#N)cc2)CC1` [Compound 151, 4-((4-(ethoxymethyl)-4-phenethylpiperidin-1-yl)methyl)benzonitrile]: the ED50 is more than 10 mg/kg.
Turning to `CCOCC1(CCc2ccccc2)CCN(Cc2ccc(B3OC(C)(C)C(C)(C)O3)cc2)CC1` [Compound 152, 4-(ethoxymethyl)-4-phenethyl-1-(4-(4,4,5,5-tetramethyl-1,3,2-dioxaborolan-2-yl)benzyl)piperidine], the ED50 is more than 10 mg/kg.
For the compound `CCOCC1(CCc2ccccc2)CCN(Cc2ccc(-c3cn[nH]n3)cc2)CC1` [Compound 153, 1-(4-(2H-1,2,3-triazol-4-yl)benzyl)-4-(ethoxymethyl)-4-phenethylpiperidine], the ED50 was more than 10 mg/kg.
Take `CCOCC1(CCc2ccccc2)CCN(Cc2ccc(-c3nnn[nH]3)cc2)CC1.Cl` [Compound 154, 1-(4-(1H-tetrazol-5-yl)benzyl)-4-(ethoxymethyl)-4-phenethylpiperidine HCl]: the ED50 was more than 10 mg/kg.
`CCOCC1(CCc2ccccc2)CCN(Cc2ccc(-c3n[nH]c(=O)[nH]3)cc2)CC1` [Compound 155, 3-(4-((4-(ethoxymethyl)-4-phenethylpiperidin-1-yl)methyl)phenyl)-1H-1,2,4-triazol-5(4H)-one]: the ED50 was more than 10 mg/kg.
To `CCOCC1(CCc2ccccc2)CCN(Cc2ccc(C(C)O)cc2)CC1.Cl` (stereo not shown) [Compound 156, 1-(4-((4-(ethoxymethyl)-4-phenethylpiperidin-1-yl)methyl)phenyl)ethanol HCl] belongs more than 10 mg/kg; to `CCOCC1(CCc2ccccc2)CCN(Cc2ccc(-n3ccnn3)cc2)CC1` [Compound 157], more than 10 mg/kg; to `CCOCC1(CCc2ccccc2)CCN(Cc2ccc(-n3nccn3)cc2)CC1` [Compound 158], more than 10 mg/kg.
As to `CCOC(C)C1(CCc2ccccc2)CCN(Cc2ccc(NC(C)=O)cc2)CC1.Cl` (stereo not shown) [Compound 159, N-(4-((4-(1-ethoxyethyl)-4-phenethylpiperidin-1-yl)methyl)phenyl)acetamide HCl], the ED50 is more than 10 mg/kg.
As for `CC(=O)Nc1ccc(CN2CCC(CCc3ccccc3)(C3CCC(C)O3)CC2)cc1` (stereo not shown) [Compound 160, N-(4-((4-(5-methyltetrahydro-furan-2-yl)-4-phenethylpiperidin-1-yl)methyl)phenyl)acetamide], the ED50 was less than 10 mg/kg.
For `CCOCC1(CCc2ccccc2)CCN(Cc2ccc(CC(N)=O)cc2)CC1` [Compound 161, 2-(4-((4-(ethoxymethyl)-4-phenethylpiperidin-1-yl)methyl)phenyl)acetamide] the value was more than 10 mg/kg; for `CCOCC1(CCc2ccccc2)CCN(Cc2ccc(CC(=O)NC)cc2)CC1` [Compound 162, 2-(4-((4-(ethoxymethyl)-4-phenethylpiperidin-1-yl)methyl)phenyl)-N-methylacetamide], more than 10 mg/kg; for `CCOCC1(CCc2ccccc2)CCN(Cc2ccc(CC(C)O)cc2)CC1` (stereo not shown) [Compound 163, 1-(4-((4-(ethoxymethyl)-4-phenethylpiperidin-1-yl)methyl)phenyl)propan-2-ol], more than 10 mg/kg.
With `CC(=O)Nc1ccc(CN2CCC(CCc3ccccc3)(C3(C)CC=CCO3)CC2)cc1.Cl` (stereo not shown) [Compound 164, N-(4-((4-(2-methyl-3,6-dihydro-2H-pyran-2-yl)-4-phenethylpiperidin-1-yl)methyl)phenyl)acetamide HCl], the ED50 is more than 10 mg/kg.
With `CC(=O)Nc1ccc(CN2CCC(CCc3ccccc3)(C3(C)CCCCO3)CC2)cc1` (stereo not shown) [Compound 165, N-(4-((4-(2-methyltetrahydro-2H-pyran-2-yl)-4-phenethylpiperidin-1-yl)methyl)phenyl)acetamide], the ED50 was less than 10 mg/kg.
To `CCOCC1(/C=C/c2ccccn2)CCN(Cc2ccc(NC(C)=O)cc2)CC1` [Compound 166, (E)-N-(4-((4-(ethoxymethyl)-4-(2-(pyridin-2-yl)vinyl)piperidin-1-yl)methyl)phenyl)acetamide] belongs more than 10 mg/kg; to `CCOCC1(/C=C/c2ccsc2)CCN(Cc2ccc(NC(C)=O)cc2)CC1` [Compound 167, (E)-N-(4-((4-(ethoxymethyl)-4-(2-(thiophen-3-yl)vinyl)piperidin-1-yl)methyl)phenyl)acetamide], more than 10 mg/kg.
As for `CCOCC1(/C=C/c2ccc3ccccc3c2)CCN(Cc2ccc(NC(C)=O)cc2)CC1` [Compound 168, (E)-N-(4-((4-(ethoxymethyl)-4-(2-(naphthalen-2-yl)vinyl)piperidin-1-yl)methyl)phenyl)acetamide], the ED50 is more than 10 mg/kg.
Regarding `CCOCC1(CCc2ccccc2)CCN(Cc2ccc(CNC(C)=O)cc2)CC1.Cl` [Compound 169, N-(4-((4-(ethoxymethyl)-4-phenethylpiperidin-1-yl)methyl)benzyl)acetamide HCl], the ED50 is more than 10 mg/kg.
For `CCOCC1(CCc2ccccc2OC)CCN(Cc2ccc(NC(C)=O)cc2)CC1` [Compound 170, N-(4-((4-(ethoxymethyl)-4-(2-methoxy-phenethyl)piperidin-1-yl)methyl)phenyl)acetamide], the ED50 was more than 10 mg/kg.
As to `CC(=O)Nc1ccc(CN2CCC(CCc3cccs3)(C3CCO3)CC2)cc1` (stereo not shown) [Compound 171, N-(4-((4-(oxetan-2-yl)-4-(2-(thiophen-2-yl)ethyl)piperidin-1-yl)methyl)phenyl)acetamide], the ED50 is less than 10 mg/kg.
On to `CC(=O)Nc1ccc(CN2CCC(CCc3cccs3)(C3CCCO3)CC2)cc1` (stereo not shown) [Compound 172, N-(4-((4-(tetrahydrofuran-2-yl)-4-(2-(thiophen-2-yl)ethyl)piperidin-1-yl)methyl)phenyl)acetamide], for which the ED50 is less than 10 mg/kg.
`CCOCC1(CCc2ccccc2)CCN(Cc2ccc(NC=O)s2)CC1` [Compound 173, N-(5-((4-(ethoxymethyl)-4-phenethylpiperidin-1-yl)methyl)thiophen-2-yl)formamide]: the ED50 is more than 10 mg/kg.
In the case of `CCOCC1(CCc2ccccc2)CCN(c2ccc(CNC(C)=O)cc2)CC1` [Compound 174, N-(4-(4-(ethoxymethyl)-4-phenethylpiperidin-1-yl)benzyl)acetamide], the ED50 is more than 10 mg/kg.
Turning to `CC(=O)Nc1ccc(CN2CCC(CCc3ccccc3)(C3C=CC(C)O3)CC2)cc1` (stereo not shown) [Compound 175, N-(4-((4-(5-methyl-2,5-dihydrofuran-2-yl)-4-phenethylpiperidin-1-yl)methyl)phenyl)acetamide], the ED50 is less than 10 mg/kg.
Consider `CCOCC1(CCc2ccccc2)CCN(Cc2cccc(NC(C)=O)c2)CC1` [Compound 176, N-(3-((4-(ethoxymethyl)-4-phenethylpiperidin-1-yl)methyl)phenyl)acetamide], for which the ED50 is more than 10 mg/kg.
As for `CCOCC1(CCc2cccs2)CCN(Cc2ccc(NC(C)=O)cc2)C1` (stereo not shown) [Compound 177, N-(4-((3-(ethoxymethyl)-3-(2-(thiophen-2-yl)ethyl)pyrrolidin-1-yl)methyl)phenyl)acetamide], the ED50 was less than 10 mg/kg.
On to `CCOCC1(CCc2ccsc2)CCN(Cc2ccc(NC(C)=O)cc2)C1` (stereo not shown) [Compound 178, N-(4-((3-(ethoxymethyl)-3-(2-(thiophen-3-yl)ethyl)pyrrolidin-1-yl)methyl)phenyl)acetamide], for which the ED50 is less than 10 mg/kg.
`CC(=O)Nc1ccc(CN2CCC(CCc3ccccc3)(C3C=CCO3)C2)cc1` (stereo not shown) [Compound 179, N-(4-((3-(2,5-dihydrofuran-2-yl)-3-phenethylpyrrolidin-1-yl)methyl)phenyl)acetamide]: the ED50 was less than 10 mg/kg.
`CC(=O)Nc1ccc(CN2CCC(CCc3ccccc3)(C3CCCO3)C2)cc1` (stereo not shown) [Compound 180, N-(4-((3-phenethyl-3-(tetrahydrofuran-2-yl)pyrrolidin-1-yl)methyl)phenyl)acetamide]: the ED50 was more than 10 mg/kg.
To `CCOCC1(CCc2ccccc2)CCN(Cc2ccc(CC(=O)OC)cc2)CC1` [Compound 181, methyl 2-(4-((4-(ethoxymethyl)-4-phenethylpiperidin-1-yl)methyl)phenyl)acetate] belongs more than 10 mg/kg; to `CC(=O)Nc1ccc(CN2CCC(CCc3cccs3)(C3C=CCO3)CC2)cc1` (stereo not shown) [Compound 182, N-(4-((4-(2,5-dihydrofuran-2-yl)-4-(2-(thiophen-2-yl)ethyl)piperidin-1-yl)methyl)phenyl)acetamide], more than 10 mg/kg.
Take `CC(=O)Nc1ccc(CN2CCC(CCc3cccs3)(c3ccccn3)CC2)cc1` [Compound 183, N-(4-((4-(pyridin-2-yl)-4-(2-(thiophen-2-yl)ethyl)piperidin-1-yl)methyl)phenyl)acetamide]: the ED50 is more than 10 mg/kg.
Take `CC(=O)Nc1ccc(CN2CCC(CCc3ccsc3)(c3ccccn3)CC2)cc1` [Compound 184, N-(4-((4-(pyridin-2-yl)-4-(2-(thiophen-3-yl)ethyl)piperidin-1-yl)methyl)phenyl)acetamide]: the ED50 was more than 10 mg/kg.
To `CC(=O)Nc1ccc(CN2CCC(CCc3ccsc3)(C3CCO3)CC2)cc1` (stereo not shown) [Compound 185, N-(4-((4-(oxetan-2-yl)-4-(2-(thiophen-3-yl)ethyl)piperidin-1-yl)methyl)phenyl)acetamide] belongs less than 10 mg/kg.

These data come from patent US11584765B2 (priority 2017, dated 2023).
